Measurements: ChEMBL document CHEMBL6092217 (Eur J Med Chem, 2024)
Active and inactive are the calls of the source. No cut-off for these calls is given here.

What was measured:
HT-29 [1] = assay: Antiproliferative activity against human HT-29 cells assessed as cell viability incubated for 72 hrs by MTT assay; assay type: functional, cell-based; settings: HT-29, 72 h
HT-29 [2] = assay: Induction of cell cycle arrest in human HT-29 cells assessed as effect on CDC2 expression at 50 to 200 nM incubated for 24 hrs by Western blot analysis; assay type: functional, cell-based; settings: dose 50-200 nM
HT-29 [3] = assay: Induction of apoptosis in human HT-29 cells assessed as upregulation of cleaved caspase 3 level at 50 to 200 nM incubated for 24 hrs by Western blot analysis; assay type: functional, cell-based; settings: dose 50-200 nM
HT-29 [4] = assay: Induction of cell cycle arrest in human HT-29 cells assessed as increase in cyclin-B1 expression incubated for 24 hrs by Western blot analysis; assay type: functional, cell-based; settings: dose 50-200 nM
[5] = AUC (0 to t) in Sprague-Dawley rat at 5 mg/kg, iv measured upto 24 hrs by HPLC-MS analysis; assay type: ADME, organism-based; settings: in vivo
HT-29 [6] = assay: Induction of cell cycle arrest in human HT-29 cells assessed as accumulation of cells at S phase at 200 nM incubated for 24 hrs by flow cytometry analysis (reference value: 20.8 %); assay type: functional
HT-29 [7] = assay: Antitumor activity against human HT-29 cells xenografted in BALB/c mouse assessed as tumor growth inhibition at 20 mg/kg, iv measured after 21 days; assay type: functional; settings: HT-29, 504 h, time 21 day, read-out: TGI
[8] = Toxicity in ICR mouse assessed as effect on LDH level at 10 to 40 mg/kg, iv administered every 2 days and measured after 14 days; assay type: organism-based; settings: in vivo, 336 h, dose 10-40 mg/kg, time 14 day
[9] = MRT (0 to t) in Sprague-Dawley rat at 5 mg/kg, iv measured upto 24 hrs by HPLC-MS analysis; assay type: ADME, organism-based; settings: in vivo
[10] = Half life in Sprague-Dawley rat at 5 mg/kg, iv measured upto 24 hrs by HPLC-MS analysis; assay type: ADME, organism-based; settings: in vivo
HT-29 [11] = assay: Antitumor activity against human HT-29 cells xenografted in BALB/c mouse assessed as reduction in CD31 expression at 10 to 40 mg/kg, iv measured after 21 days by immunohistochemical analysis; assay type: functional, organism-based; settings: dose 10-40 mg/kg, time 21.0 day
HT-29 [12] = assay: Induction of apoptosis in human HT-29 cells assessed as upregulation of cleaved PARP level at 50 to 200 nM incubated for 24 hrs by Western blot analysis; assay type: functional, cell-based; settings: dose 50-200 nM
[13] = Toxicity in ICR mouse assessed as effect on monocyte count at 10 to 40 mg/kg, iv administered every 2 days and measured after 14 days; assay type: organism-based; settings: in vivo, 336 h, dose 10-40 mg/kg, time 14 day
PC-3 = assay: Antiproliferative activity against human PC-3 cells assessed as cell viability incubated for 72 hrs by MTT assay; assay type: functional, cell-based; settings: PC-3, 72 h
[14] = Toxicity in BALB/c mouse assessed as liver damage at 10 to 40 mg/kg, iv measured after 21 days by H and E staining based analysis; assay type: organism-based; settings: in vivo, 504 h, dose 10-40 mg/kg, time 21 day
Tubulin (Homo sapiens) [15] = target: T1, Tubulin (Homo sapiens) (UniProt P68371+Q9H4B7+P0DPH7+P68366+Q13509+Q71U36+P04350+Q3ZCM7+P07437+P68363+Q9BQE3+Q6PEY2+Q13885+Q9BVA1+Q9BUF5); assay: Inhibition of tubulin polymerization in human HT-29 cells assessed as reduction in beta-tubulin expression 50 to 200 nM incubated for 24 hrs by Western blot analysis; assay type: cell-based; settings: dose 50-200 nM
A549 = assay: Inhibition of cell migration in human A549 cells incubated for 24 hrs by wound healing assay; assay type: functional, cell-based; settings: dose 50-100 nM
[16] = Toxicity in BALB/c mouse assessed as kidney damage at 10 to 40 mg/kg, iv measured after 21 days by H and E staining based analysis; assay type: organism-based; settings: in vivo, 504 h, dose 10-40 mg/kg, time 21 day
Mitochondrial membrane [17] = assay: Induction of mitochondrial membrane potential loss in human HT-29 cells incubated for 24 hrs by JC-1 staining based confocal microscopic analysis; assay type: cell membranes; settings: dose 50-100 nM
Mitochondrial membrane [18] = assay: Induction of mitochondrial membrane potential loss in human HT-29 cells assessed as decrease in red fluorescence at 50 to 100 nM incubated for 24 hrs by JC-1 staining based confocal microscopic analysis; assay type: cell membranes; settings: dose 50-100 nM
[19] = Toxicity in BALB/c mouse assessed as lung damage at 10 to 40 mg/kg, iv measured after 21 days by H and E staining based analysis; assay type: organism-based; settings: in vivo, 504 h, dose 10-40 mg/kg, time 21 day
[20] = Toxicity in ICR mouse assessed as effect on lymphocytes count at 10 to 40 mg/kg, iv administered every 2 days and measured after 14 days; assay type: organism-based; settings: in vivo, 336 h, dose 10-40 mg/kg, time 14 day
[21] = Toxicity in ICR mouse assessed as effect on granulocytes count at 10 to 40 mg/kg, iv administered every 2 days and measured after 14 days; assay type: organism-based; settings: in vivo, 336 h, dose 10-40 mg/kg, time 14 day
HT-29 [22] = assay: Induction of cell cycle arrest in human HT-29 cells assessed as accumulation of cells at S phase at 100 nM incubated for 24 hrs by flow cytometry analysis (reference value: 20.8 %); assay type: functional
HT-29 [23] = assay: Induction of apoptosis in human HT-29 cells assessed as early apoptotic cells at 100 nM incubated for 24 hrs by FITC/PI staining based flow cytometry analysis (reference value: 8.14%); assay type: functional
[24] = Toxicity in ICR mouse assessed as effect on ALT level at 10 to 40 mg/kg, iv administered every 2 days and measured after 14 days; assay type: organism-based; settings: in vivo, 336 h, dose 10-40 mg/kg, time 14 day
HT-29 [25] = assay: Induction of apoptosis in human HT-29 cells assessed as viable cells at 200 nM incubated for 24 hrs by FITC/PI staining based flow cytometry analysis (reference value: 91.6%); assay type: functional; settings: read-out: Activity
Tubulin (Homo sapiens) [26] = target: T1, Tubulin (Homo sapiens); assay: Binding affinity to Tubulin colchicine binding site in human HT-29 cells assessed as inhibition of EBI-beta-tubulin adduct formation at 1 to 100 uM preincubated with compound for 2 hrs followed by EBI addition measured after 1.5 hrs by EBI competition based Western blotting analysis; assay type: cell-based; settings: dose 1-100 µM, time 3.5 hrs
RKO = assay: Antiproliferative activity against human RKO cells assessed as cell viability incubated for 72 hrs by MTT assay; assay type: functional, cell-based
HT-29 [27] = assay: Induction of cell cycle arrest in human HT-29 cells assessed as accumulation of cells at G2 phase at 50 nM incubated for 24 hrs by flow cytometry analysis (reference value: 13 %); assay type: functional
HT-29 [28] = assay: Induction of cell cycle arrest in human HT-29 cells assessed as reduction in p-CDC2 expression incubated for 24 hrs by Western blot analysis; assay type: functional, cell-based; settings: dose 50-200 nM
HT-29 [29] = assay: Induction of apoptosis in human HT-29 cells assessed as necrotic cells at 200 nM incubated for 24 hrs by FITC/PI staining based flow cytometry analysis (reference value: 0.017 %); assay type: functional
[30] = Toxicity in ICR mouse assessed as effect on WBC count at 10 to 40 mg/kg, iv administered every 2 days and measured after 14 days; assay type: organism-based; settings: in vivo, 336 h, dose 10-40 mg/kg, time 14 day
HT-29 [31] = assay: Induction of apoptosis in human HT-29 cells assessed as viable cells at 100 nM incubated for 24 hrs by FITC/PI staining based flow cytometry analysis (reference value: 91.6%); assay type: functional; settings: read-out: Activity
HT-29 [32] = assay: Induction of cell cycle arrest in human HT-29 cells assessed as accumulation of cells at G2 phase at 200 nM incubated for 24 hrs by flow cytometry analysis (reference value: 13 %); assay type: functional
[33] = Toxicity in ICR mouse assessed as effect on CREA level at 10 to 40 mg/kg, iv administered every 2 days and measured after 14 days; assay type: organism-based; settings: in vivo, 336 h, dose 10-40 mg/kg, time 14 day

Q: Which IC50 (HT-29 [1]) does the source give for COc1ccc(N(C)c2nc(/C=C/c3cccc(OC)c3)nc3ccccc23)cc1 here?
A: Its IC50 is 0.051 µM.

Q: What about the Activity (HT-29 [2]) of the same compound?
A: Its Activity is “inactive”.

Q: What about the Activity (HT-29 [3]) of the same compound?
A: The Activity was “Active”.

Q: What about the Activity (HT-29 [4]) of the same compound?
A: The Activity was “Dose-dependent-effect”.

Q: What about the AUC(0-t) at 24 h [5] of the same compound?
A: Its AUC(0-t) at 24 h is 3.83 µg·h/mL.

Q: And the Activity (HT-29 [6])?
A: The Activity was 7.31%.

Q: And the inhibition in vivo at 20 mg/kg (HT-29 [7])?
A: The inhibition in vivo at 20 mg/kg was 64.7%.

Q: What about the Activity [8] of the same compound?
A: Its Activity is “Non-toxic”.

Q: What about the MRT last at 24 h [9] of the same compound?
A: The MRT last at 24 h was 46.8 min.

Q: What about the half-life [10] of the same compound?
A: The half-life was 30.6 min.

Q: And the Activity (HT-29 [11])?
A: Its Activity is “Active”.

Q: What about the Activity (HT-29 [12]) of the same compound?
A: The Activity was “Active”.

Q: And the Activity [13]?
A: The Activity was “Non-toxic”.

Q: And the IC50 (PC-3)?
A: Its IC50 is 0.13 µM.

Q: What about the Activity [14] of the same compound?
A: Its Activity is “Non-toxic”.

Q: And the inhibition (Tubulin (Homo sapiens) [15])?
A: Its inhibition is “Active”.

Q: What about the inhibition (A549) of the same compound?
A: Its inhibition is “Dose-dependent-effect”.

Q: What about the Activity [16] of the same compound?
A: The Activity was “Non-toxic”.

Q: What about the Activity (Mitochondrial membrane [17]) of the same compound?
A: Its Activity is “Dose-dependent-effect”.

Q: And the Activity (Mitochondrial membrane [18])?
A: Its Activity is “Active”.

Q: What about the Activity [19] of the same compound?
A: The Activity was “Non-toxic”.

Q: And the Activity [20]?
A: Its Activity is “Non-toxic”.

Q: What about the Activity [21] of the same compound?
A: The Activity was “Non-toxic”.

Q: What about the Activity (HT-29 [22]) of the same compound?
A: The Activity was 24.9%.

Q: What about the Activity (HT-29 [23]) of the same compound?
A: The Activity was 2.87%.

Q: And the Activity [24]?
A: The Activity was “Non-toxic”.

Q: What about the viability at 0.2 µM (HT-29 [25]) of the same compound?
A: Its viability at 0.2 µM is 43.2%.

Q: And the inhibition (Tubulin (Homo sapiens) [26])?
A: The inhibition was “Active”.

Q: What about the IC50 (RKO) of the same compound?
A: Its IC50 is 0.1 µM.

Q: What about the Activity (HT-29 [27]) of the same compound?
A: Its Activity is 17.8%.

Q: What about the Activity (HT-29 [28]) of the same compound?
A: Its Activity is “Dose-dependent-effect”.

Q: What about the Activity (HT-29 [29]) of the same compound?
A: The Activity was 1.36%.

Q: What about the Activity [30] of the same compound?
A: The Activity was “Non-toxic”.

Q: What about the viability at 0.1 µM (HT-29 [31]) of the same compound?
A: The viability at 0.1 µM was 67.2%.

Q: What about the Activity (HT-29 [32]) of the same compound?
A: The Activity was 69.8%.

Q: What about the Activity [33] of the same compound?
A: Its Activity is “Non-toxic”.
